Assay results taken from PMC9854539, “QSAR Studies, Molecular Docking, Molecular Dynamics, Synthesis, and Biological Evaluation of Novel Quinolinone-Based Thiosemicarbazones against Mycobacterium tuberculosis” (Antibiotics, 2022).
Converted amounts (≈) assume the structure as drawn. “And” between values parts separate entries of the source, which are not always exact repeats. Equal values may be shown once.

Legend:
[1] = system: M. tuberculosis ATCC 35838; test: Spot culture growth inhibition assay (SPOTi), MIC; assay type: cell-based, Mycobacterium tuberculosis; settings: IC50 Vero / MIC M. tuberculosis ATCC 35838 RR
MTT cytotoxicity assay = settings: African green monkey
M. tuberculosis LAM 9 = test: Spot culture growth inhibition assay (SPOTi), MIC; assay type: cell-based, Mycobacterium tuberculosis; settings: IC50 Vero / MIC M. tuberculosis LAM 9 (sit 42)
[2] = system: M. tuberculosis ATCC 35822; test: Spot culture growth inhibition assay (SPOTi), MIC; assay type: cell-based, Mycobacterium tuberculosis; settings: IC50 Vero / MIC M. tuberculosis ATCC 35822 RI
M. tuberculosis Beijing = test: Spot culture growth inhibition assay (SPOTi), MIC; assay type: cell-based, Mycobacterium tuberculosis; settings: for Selectivity Index (SI) (SI = IC50/MIC) d: IC50 Vero / MIC M. tuberculosis Beijing
M. tuberculosis H37Rv = test: Spot culture growth inhibition assay (SPOTi), MIC; assay type: cell-based, Mycobacterium tuberculosis; settings: for Selectivity Index (SI) (SI = IC50/MIC) b: IC50 Vero / MIC M. tuberculosis H37Rv; for MIC: Mycobacterium tuberculosis, H37RV, SPOTi, 2–3 weeks at 37 °C
M. tuberculosis Haarlem = test: Spot culture growth inhibition assay (SPOTi), MIC; assay type: cell-based, Mycobacterium tuberculosis; settings: IC50 Vero / MIC M. tuberculosis Haarlem
M. tuberculosis Orphan = test: Spot culture growth inhibition assay (SPOTi), MIC; assay type: cell-based, Mycobacterium tuberculosis; settings: IC50 Vero / MIC M. tuberculosis orphan
M. bovis BCG = test: microbe, parasite or virus in culture; assay type: cell-based; settings: for Selectivity Index (SI) (SI = IC50/MIC) a: IC50 Vero / MIC M. bovis BCG; for MIC: Mycobacterium tuberculosis variant bovis BCG, BCG, read-out: MIC M. bovis BCG
[3] = system: M. tuberculosis H37RV strain; parameters: method as in earlier work; settings: cited from earlier work; for MIC: observed activity of QSAR data set; for MIC exp (log (1/molarMIC)): pMIC from literature MIC in mol/L

CC(/C=C/c1cc2cc(C)ccc2[nH]c1=O)=N\NC(N)=S [Compound 11b, (E)-2-((E)-4-(6-Methyl-2-oxo-1,2-dihydroquinolin-3-yl)but-3-en-2-ylidene)hydrazine-1-carbothioamide]
Selectivity Index (SI) (SI = IC50/MIC) g [1]: 1.06
IC50 at 48 h (MTT cytotoxicity assay): 3530 nM
Selectivity Index (SI) (SI = IC50/MIC) e (M. tuberculosis LAM 9): 0.21
Selectivity Index (SI) (SI = IC50/MIC) h [2]: 1.06
Selectivity Index (SI) (SI = IC50/MIC) d (M. tuberculosis Beijing): 2.13
Selectivity Index (SI) (SI = IC50/MIC) b (M. tuberculosis H37Rv): 22.06
MIC (M. tuberculosis H37Rv): 0.16 µM (≈ 0.0481 µg/mL)
Selectivity Index (SI) (SI = IC50/MIC) f (M. tuberculosis Haarlem): 1.06
Selectivity Index (SI) (SI = IC50/MIC) c (M. tuberculosis Orphan): 0.11
Selectivity Index (SI) (SI = IC50/MIC) a (M. bovis BCG): 22.06
MIC (M. bovis BCG): 0.16 µM (≈ 0.0481 µg/mL)

CC(/C=C/c1cc2cccc(C)c2[nH]c1=O)=N\NC(N)=S [Compound 11c, (E)-2-((E)-4-(8-Methyl-2-oxo-1,2-dihydroquinolin-3-yl)but-3-en-2-ylidene)hydrazine-1-carbothioamide]
melting point: 241 °C
Selectivity Index (SI) (SI = IC50/MIC) g [1]: 1.14
IC50 at 48 h (MTT cytotoxicity assay): 1900 nM
Selectivity Index (SI) (SI = IC50/MIC) e (M. tuberculosis LAM 9): 0.58
Selectivity Index (SI) (SI = IC50/MIC) h [2]: 5.76
Selectivity Index (SI) (SI = IC50/MIC) d (M. tuberculosis Beijing): 5.76
Selectivity Index (SI) (SI = IC50/MIC) b (M. tuberculosis H37Rv): 11.88
MIC (M. tuberculosis H37Rv): 0.16 µM (≈ 0.0481 µg/mL)
Selectivity Index (SI) (SI = IC50/MIC) f (M. tuberculosis Haarlem): 0.06
Selectivity Index (SI) (SI = IC50/MIC) c (M. tuberculosis Orphan): 0.03
Selectivity Index (SI) (SI = IC50/MIC) a (M. bovis BCG): 5.75
MIC (M. bovis BCG): 0.33 µM (≈ 0.0991 µg/mL)

CC(/C=C/c1cc2ccc(Cl)cc2[nH]c1=O)=N\NC(N)=S [Compound 11d, (E)-2-((E)-4-(7-Chloro-2-oxo-1,2-dihydroquinolin-3-yl)but-3-en-2-ylidene)hydrazine-1-carbothioamide]
melting point: 246 °C
Selectivity Index (SI) (SI = IC50/MIC) g [1]: 0.50
IC50 at 48 h (MTT cytotoxicity assay): 1650 nM
Selectivity Index (SI) (SI = IC50/MIC) e (M. tuberculosis LAM 9): 0.53
Selectivity Index (SI) (SI = IC50/MIC) h [2]: 0.26
Selectivity Index (SI) (SI = IC50/MIC) d (M. tuberculosis Beijing): 5.00
Selectivity Index (SI) (SI = IC50/MIC) b (M. tuberculosis H37Rv): 11.00
MIC (M. tuberculosis H37Rv): 0.15 µM (≈ 0.0481 µg/mL)
Selectivity Index (SI) (SI = IC50/MIC) f (M. tuberculosis Haarlem): 1.06
Selectivity Index (SI) (SI = IC50/MIC) c (M. tuberculosis Orphan): 0.26
Selectivity Index (SI) (SI = IC50/MIC) a (M. bovis BCG): 55.00
MIC (M. bovis BCG): 0.03 µM (≈ 0.00962 µg/mL)

CC(/C=C/c1cc2cc(Br)ccc2[nH]c1=O)=N\NC(N)=S [Compound 11e, (E)-2-((E)-4-(6-Bromo-2-oxo-1,2-dihydroquinolin-3-yl)but-3-en-2-ylidene)hydrazine-1-carbothioamide]
melting point: 253 °C
Selectivity Index (SI) (SI = IC50/MIC) g [1]: 0.81
IC50 at 48 h (MTT cytotoxicity assay): 2200 nM
Selectivity Index (SI) (SI = IC50/MIC) e (M. tuberculosis LAM 9): 0.80
Selectivity Index (SI) (SI = IC50/MIC) h [2]: 1.61
Selectivity Index (SI) (SI = IC50/MIC) d (M. tuberculosis Beijing): 8.15
potency relative to Oxafloxacin (M. tuberculosis Beijing; M. tuberculosis Beijing): tenfold more potent than Oxafloxacin
Selectivity Index (SI) (SI = IC50/MIC) b (M. tuberculosis H37Rv): 16.92
MIC (M. tuberculosis H37Rv): 0.13 µM (≈ 0.0475 µg/mL)
Selectivity Index (SI) (SI = IC50/MIC) f (M. tuberculosis Haarlem): 0.08
Selectivity Index (SI) (SI = IC50/MIC) c (M. tuberculosis Orphan): 0.08
Selectivity Index (SI) (SI = IC50/MIC) a (M. bovis BCG): 16.92
MIC (M. bovis BCG): 0.13 µM (≈ 0.0475 µg/mL)

O=C(NCCNc1ccnc2cc(Cl)ccc12)Nc1ccc(Cl)cc1 [Compound 18]
MIC [3]: 10.65 µM (≈ 4 µg/mL)
MIC exp (log (1/molarMIC)) [3]: 4.97

O=[N+]([O-])c1ccc(N2CCN(c3ccnc4cc(Cl)ccc34)CC2)c2nonc12 [Compound 19]
MIC [3]: 7.26 µM (≈ 2.98 µg/mL)
MIC exp (log (1/molarMIC)) [3]: 5.13

O=C(NNc1ccnc2cc(Cl)ccc12)c1ccccc1N=Cc1ccc(F)cc1 [Compound 20]
MIC [3]: 6.25 µM (≈ 2.62 µg/mL)
MIC exp (log (1/molarMIC)) [3]: 5.2

O=C(NNc1ccnc2cc(Cl)ccc12)c1ccccc1N=Cc1ccc(Br)cc1 [Compound 21]
MIC [3]: 6.25 µM (≈ 3 µg/mL)
MIC exp (log (1/molarMIC)) [3]: 5.2

O=C(NNc1ccnc2cc(Cl)ccc12)c1ccccc1N=Cc1ccc(Cl)cc1Cl [Compound 22]
MIC [3]: 6.25 µM (≈ 2.94 µg/mL)
MIC exp (log (1/molarMIC)) [3]: 5.20

COc1ccc(C=Nc2ccccc2C(=O)NNc2ccnc3cc(Cl)ccc23)cc1OC [Compound 23]
MIC [3]: 6.25 µM (≈ 2.88 µg/mL)
MIC exp (log (1/molarMIC)) [3]: 5.20

COc1cc(C=Nc2ccccc2C(=O)NNc2ccnc3cc(Cl)ccc23)cc(OC)c1OC [Compound 24]
MIC [3]: 6.25 µM (≈ 3.07 µg/mL)
MIC exp (log (1/molarMIC)) [3]: 5.20

O=C(NNc1ccnc2cc(Cl)ccc12)c1ccccc1N=Cc1ccc(-c2cccs2)cc1 [Compound 25]
MIC [3]: 6.25 µM (≈ 3.02 µg/mL)
MIC exp (log (1/molarMIC)) [3]: 5.20

O=C(NNc1ccnc2cc(Cl)ccc12)c1ccccc1N=CC=Cc1ccccc1 [Compound 26]
MIC [3]: 3.12 µM (≈ 1.33 µg/mL)
MIC exp (log (1/molarMIC)) [3]: 5.51

Cc1nc2ccccc2c(-c2ccccc2)c1C(=O)c1ccccc1 [Compound 27]
MIC [3]: 19.33 µM (≈ 6.25 µg/mL)
MIC exp (log (1/molarMIC)) [3]: 4.71

CC(=O)c1c(C)nc2ccc(Cl)cc2c1-c1ccccc1 [Compound 28]
MIC [3]: 10.57 µM (≈ 3.13 µg/mL)
MIC exp (log (1/molarMIC)) [3]: 4.98

c1ccc(-c2c3c(nc4ccccc24)CCCCC3)cc1 [Compound 29]
MIC [3]: 45.73 µM (≈ 12.5 µg/mL)
MIC exp (log (1/molarMIC)) [3]: 4.34

CC1CC(=O)c2c(nc3ccccc3c2-c2ccccc2)C1 (centres unmarked) [Compound 30]
MIC [3]: 21.75 µM (≈ 6.25 µg/mL)
MIC exp (log (1/molarMIC)) [3]: 4.66

CC1(C)CC(=O)c2c(nc3ccccc3c2-c2ccccc2)C1 [Compound 31]
MIC [3]: 20.74 µM (≈ 6.25 µg/mL)
MIC exp (log (1/molarMIC)) [3]: 4.68

O=C1CC(c2ccccc2)Cc2nc3ccccc3c(-c3ccccc3)c21 (centres unmarked) [Compound 32]
MIC [3]: 35.77 µM (≈ 12.5 µg/mL)
MIC exp (log (1/molarMIC)) [3]: 4.45

c1ccc(-c2cc(-c3ccccc3)c3ccccc3n2)cc1 [Compound 33]
MIC [3]: 11.11 µM (≈ 3.13 µg/mL)
MIC exp (log (1/molarMIC)) [3]: 4.95

c1ccc(-c2cc(Cc3ccco3)nc3ccccc23)cc1 [Compound 34]
MIC [3]: 21.75 µM (≈ 6.21 µg/mL)
MIC exp (log (1/molarMIC)) [3]: 4.66

COc1ccc(NC(=O)c2c(C)nc3ccccc3c2-c2ccccc2)cc1 [Compound 35]
MIC [3]: 8.48 µM (≈ 3.12 µg/mL)
MIC exp (log (1/molarMIC)) [3]: 5.07

Cc1nc2ccccc2c(-c2ccccc2)c1C(=O)Nc1ccc(F)cc1 [Compound 36]
MIC [3]: 16.76 µM (≈ 5.97 µg/mL)
MIC exp (log (1/molarMIC)) [3]: 4.78

Cc1nc2ccccc2c(-c2ccccc2)c1C(=O)Nc1ccc(Cl)cc1 [Compound 37]
MIC [3]: 17.54 µM (≈ 6.54 µg/mL)
MIC exp (log (1/molarMIC)) [3]: 4.76

Cc1nc2ccccc2c(-c2ccccc2)c1C(=O)Nc1ccc(Br)cc1 [Compound 38]
MIC [3]: 30.92 µM (≈ 12.9 µg/mL)
MIC exp (log (1/molarMIC)) [3]: 4.51

Cc1nc2ccccc2c(-c2ccccc2)c1C(=O)Nc1ccccc1Cl [Compound 39]
MIC [3]: 33.53 µM and 18.42 µM
MIC exp (log (1/molarMIC)) [3]: 4.47 and 4.73

Cc1nc2ccccc2c(-c2ccccc2)c1C(=O)NCc1ccccc1Cl [Compound 43]
MIC [3]: 64.42 µM (≈ 24.9 µg/mL)
MIC exp (log (1/molarMIC)) [3]: 4.19

Cc1nc2ccccc2c(-c2ccccc2)c1C(=O)NCc1ccc(C(C)(C)C)cc1 [Compound 44]
MIC [3]: 33.75 µM (≈ 13.8 µg/mL)
MIC exp (log (1/molarMIC)) [3]: 4.47

NNC(=O)c1ccncc1 [Isoniazid, reference compound]
MIC (M. tuberculosis H37Rv): 0.36 µM (≈ 0.0494 µg/mL)
MIC (M. bovis BCG): 0.36 µM (≈ 0.0494 µg/mL)
